The numbers were not newly measured in patent publication US8691290B2 (priority 2006, dated 2014), which cites them from elsewhere.

This series relates to polymorphonuclear leukocytes (PMN) cells. Conditions: S. aureus with various concentrations of PVP-I, 6 hours.

On to polyvinylpyrolodone-iodine [PVP-I], for which the “TNF-α release from PMN cells” value was “released increasing amounts of TNF-α as PVP-I is diluted”.
